Consider three compounds from patent publication US20250288583A1, “Treatment of Mucus Hypersecretion” (priority 2024, published 2025).

Series [1] relates to goblet cells of human nasal epithelium. As to conditions: Liu et al., 2017; cited from earlier work.
The target of a further series is T1, hTRPM8 channel (Homo sapiens, UniProt Q7Z2W7).
T1 construct: host or cells: CHO cells
In words: TRPM8 receptor assay, calcium entry (Fluo-8, FLIPR) in transfected CHO cells. It counts as cell-based. As to conditions: FIG. 5. From the text:
FIG. 4. Agonist activities of TRPM8 analogs. […] The relative fluorescence (RF) unit on the ordinate represents calcium entry into transfected cells. […] The structures of these compounds are in Table 4.
The applicant has synthesized and examined a series of p-menthanecarboxamides conjugated to amino acid esters. […] This class of molecules is called N-alkylcarbonyl-amino acid esters. GlyOiPr is a p-menthanecarboxamide conjugate of glycine isopropyl (iPr) ester. It is similar in structure to WS-5, a cooling agent used as a food additive. WS-5 is the p-menthane-glycine ethyl (Et) ester, or GlyOEt. […] These in vitro effects were measured in CHO cells transfected with the hTRPM8 channel. Receptor activity was quantified using a Fluo-8 calcium kit and a Fluorescence Imaging Plate Reader ([…]™).

The subject of the next series is nasal cavity. In words: Nebulizer screening of TRPM8 agonists for sensations in the nasal cavity. As to conditions: NasoNeb nebulizer. It is filed as in vivo, human. How it is done: Formulations for nebulization with NasoNeb® used a standard recipe of (Table 8): 1% of the active ingredient (1 to 10 mg/mL), 2% Tween 80 (Polysorbate 80), 1 to 5% ethanol, and made up to 100% with water. The mixture is centrifuged in a FlackTek, Inc., Speedmixer for at least 10 min at 3000 rpm. The Speedmixer spins the sample in 3 dimensions. The result is a white homogeneous liquid suspension with some of the solids now dissolved. For dosing, ˜2 to 3 mL is loaded into the canister of the nebulizer. The nebulizer nozzle tip is placed in the nostril and activated by pressing a button for 3 to 5 sec using a clock timer. […] For D-Ala-OiPr a 5-sec activation will deliver 2*0.73 mL*2 mg/ml, or a total dose of 3 mg per nose. The nasal cavity is relatively tolerant to exogenous agents with irritant properties, as many rinses are used for rhinitis and sinusitis. For some p-menthanecarboxamide analogs, a 2% (20 mg/mL) solution is possible and contemplated. An ideal agent reproduces a comfortable cooling or sensations of negative heat flux in the nasal cavity. […] Heat flux refers to the rate of heat transfer per unit area. The sinonasal cavity mucosa differs from philtrum skin and ocular margins in histology, so the choice of the right molecule must be made by experiment. The TRPM8 agonists were chosen for screening using a nebulizer for delivery. The NasoNeb system is powerful and effective for the OMC (FIG. 3). The delivery time per nostril in three to five seconds. […] These parameters were estimated in the initial trials: • Onset and offset of cooling sensations in the nasal cavity. • The intensity and quality of the cooling sensations in the nasal cavity. • Presence of effects such as sneezing or cough after dosing. • Degree of nasal stuffiness on a scale of 0 to 5. • Degree of rhinorrhea and phlegm in nasal secretions. • Questions regarding comfort and sleep at night.

In a further series the target is T2, TRPA1 (Homo sapiens, UniProt O75762).
T2 construct: expressed in transfected cells
T2 sequence (O75762 whole entry, species assumed): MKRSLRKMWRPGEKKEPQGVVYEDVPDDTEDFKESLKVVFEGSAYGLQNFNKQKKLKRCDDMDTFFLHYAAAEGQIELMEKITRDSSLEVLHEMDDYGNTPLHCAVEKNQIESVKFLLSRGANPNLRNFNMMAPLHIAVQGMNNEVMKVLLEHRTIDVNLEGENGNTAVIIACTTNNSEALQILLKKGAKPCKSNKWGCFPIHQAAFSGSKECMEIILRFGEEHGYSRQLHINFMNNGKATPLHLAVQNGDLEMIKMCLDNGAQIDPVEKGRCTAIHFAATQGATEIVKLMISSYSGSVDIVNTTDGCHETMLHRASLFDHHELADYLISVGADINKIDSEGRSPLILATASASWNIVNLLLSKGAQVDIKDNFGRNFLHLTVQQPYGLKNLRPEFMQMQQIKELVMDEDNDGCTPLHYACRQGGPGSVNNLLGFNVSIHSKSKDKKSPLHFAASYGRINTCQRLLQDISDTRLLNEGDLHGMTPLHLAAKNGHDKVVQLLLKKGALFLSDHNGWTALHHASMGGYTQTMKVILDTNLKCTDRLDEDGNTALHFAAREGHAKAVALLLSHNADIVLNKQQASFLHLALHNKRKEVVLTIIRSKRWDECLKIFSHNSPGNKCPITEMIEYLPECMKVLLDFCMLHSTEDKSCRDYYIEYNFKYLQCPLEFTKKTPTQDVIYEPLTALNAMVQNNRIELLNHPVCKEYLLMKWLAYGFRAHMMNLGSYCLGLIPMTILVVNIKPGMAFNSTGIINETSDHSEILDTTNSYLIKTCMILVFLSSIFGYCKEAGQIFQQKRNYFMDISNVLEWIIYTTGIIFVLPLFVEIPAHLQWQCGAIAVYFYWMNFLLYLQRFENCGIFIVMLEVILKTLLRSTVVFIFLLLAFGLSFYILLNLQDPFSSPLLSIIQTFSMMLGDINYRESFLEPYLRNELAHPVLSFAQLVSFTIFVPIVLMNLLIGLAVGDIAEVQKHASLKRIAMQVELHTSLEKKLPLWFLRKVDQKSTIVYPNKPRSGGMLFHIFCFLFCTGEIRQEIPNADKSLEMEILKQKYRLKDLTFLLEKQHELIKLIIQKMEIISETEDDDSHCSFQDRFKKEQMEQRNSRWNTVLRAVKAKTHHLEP
As to conditions: Karashima et al., 2007; cited from earlier work.

For series [2] the following is noted: human volunteers; cited from earlier work.
For series [3] the following is noted: see Table 8, Wei U.S. Pat. No. 8,258,320; cited from earlier work.
The subject of the next series is ostiomeatal complex. In words: Case study 6: WS-12 nebulization for dry mouth of obstructed breathing. It is filed as in vivo, human. From the text: As hypersecretion of mucus was not the principal event, it was decided that a long-acting p-menthanecarboxamide, WS-12, might work well for the dry mouth. WS-12 was first discovered by the applicant to be a potent TRPM8 receptor agonist (Reynolds and Polakis, U.S. Pat. No. 7,893,072), and they supplied this reagent for testing and publications [see Bödding et al. (Cell Calcium. 42:618-28, 2007), and Sherkheli (J. Pharm. Pharmaceu. Sci. 13:242-53, 2010)]. WS-12 has weak cooling effects on the skin. WS-12 was later approved as a food additive (FEMA) for comestibles such as chewing gum. WS-12 is available online for about $USD 15 per 100 g. WS-12 was prepared at 10 mg/ml in 1% ethanol and 2% polysorbate 80 suspensions for a 5-see nebulization using the NasoNeb® apparatus in a volunteer subject and administered once before sleep.
The subject now uses the WS-12 on an occasional as-needed basis. The nasal polyps are still present upon endoscopic examination. The WS-12 chemical structure is ideal for use in obstructed breathing because it has an aryl moiety that increases lipophilicity (higher octanol-water partition coefficient). Lipophilicity increases retention in the nasal mucosa; thus, its action is long-lasting. […] Its actions are more gentle, with a mild coolness on the nasal surfaces. […]

T1 sequence (Q7Z2W7 whole entry): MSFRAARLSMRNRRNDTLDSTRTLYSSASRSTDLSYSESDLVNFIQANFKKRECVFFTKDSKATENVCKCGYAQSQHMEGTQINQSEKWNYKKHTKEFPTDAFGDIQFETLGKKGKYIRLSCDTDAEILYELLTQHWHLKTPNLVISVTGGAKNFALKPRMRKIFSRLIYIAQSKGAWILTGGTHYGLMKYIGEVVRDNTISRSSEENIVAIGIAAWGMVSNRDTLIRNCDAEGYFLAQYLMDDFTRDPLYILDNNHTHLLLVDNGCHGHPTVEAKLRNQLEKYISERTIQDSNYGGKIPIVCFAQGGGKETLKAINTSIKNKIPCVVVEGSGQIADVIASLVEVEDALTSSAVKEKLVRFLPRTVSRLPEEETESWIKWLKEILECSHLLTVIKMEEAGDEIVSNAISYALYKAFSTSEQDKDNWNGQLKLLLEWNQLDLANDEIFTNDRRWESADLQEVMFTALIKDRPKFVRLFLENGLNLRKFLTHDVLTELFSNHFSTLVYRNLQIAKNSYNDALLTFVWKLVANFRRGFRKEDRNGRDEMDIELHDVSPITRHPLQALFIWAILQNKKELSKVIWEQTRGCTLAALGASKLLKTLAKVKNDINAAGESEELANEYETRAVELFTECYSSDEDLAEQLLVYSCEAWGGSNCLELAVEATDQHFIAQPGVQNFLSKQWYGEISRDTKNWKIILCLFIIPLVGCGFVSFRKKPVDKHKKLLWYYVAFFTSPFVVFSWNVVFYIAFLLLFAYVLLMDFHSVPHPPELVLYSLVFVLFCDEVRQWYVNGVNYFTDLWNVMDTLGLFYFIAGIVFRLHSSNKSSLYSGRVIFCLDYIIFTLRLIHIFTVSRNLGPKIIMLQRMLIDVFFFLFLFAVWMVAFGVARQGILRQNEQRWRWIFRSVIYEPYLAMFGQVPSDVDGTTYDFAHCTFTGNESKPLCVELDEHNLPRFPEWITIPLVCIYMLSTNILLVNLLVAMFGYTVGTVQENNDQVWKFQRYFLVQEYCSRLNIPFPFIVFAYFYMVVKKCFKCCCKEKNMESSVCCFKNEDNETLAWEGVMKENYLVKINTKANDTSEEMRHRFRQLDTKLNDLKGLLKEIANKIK

With `CC(C)[C@@H]1CC[C@@H](C)C[C@H]1O` [l-menthol, (1R,2S,5R)-2-isopropyl-5-methyl-cyclohexanol [(−)-menthol], reference compound], the MUC5AC secretion entry in series [1] was “stimulates MUC5AC”. Besides, the “Activity on TRPM8 transfected cells” value on hTRPM8 channel is listed as “active”. Further, the “Cooling duration in the nasal cavity” value in the series with nasal cavity is around 7 min. Besides, the “Sensory effects after delivery into the nasal cavity” value with nasal cavity (3 to 5 sec per nostril) is given as “Strong cool, clear breathing. Eye irritant, causes rhinorrehea”. The “Potency on TRPA1 compared with TRPM8” value at TRPA1 is “interacts with TRPA1 at a greater potency than TRPM8”.
As for `COc1ccc2c(c1)n(CCN)c(=O)n2C(=O)[C@@H]1C[C@H](C)CC[C@H]1C(C)C.Cl` [D-2363], the Troponin plasma levels result in series [2] is listed as “elevated troponin plasma levels”.
As for `COc1ccc(NC(=O)[C@@H]2C[C@H](C)CC[C@H]2C(C)C)cc1` [WS-12, (1R,2S,5R)-2-isopropyl-N-(4-methoxyphenyl)-5-methyl-cyclohexanecarboxamide], in series [3], the “Octanol/water partition coefficient among the p-menthanecarboxamides” value is on record as “highest”. Further, the “Effect on dry mouth symptoms” value with ostiomeatal complex (WS-12 10 mg/ml in 1% ethanol and 2% polysorbate 80, 5-sec nebulization once before sleep) was “dry mouth symptoms disappeared after three days of use”. The “Effect with manual spraying” value in the series on ostiomeatal complex (manual sprayer instead of electronically powered nebulizer) was “does not work well”.
